US20090305995A1, “AGONISTS AND ANTAGONISTS OF THE SOMATOSTATIN RECEPTOR” (Novartis AG, priority 2004, published 2009)
Values after ≈ are worked out from the molar mass of the structure shown. Like-named read-outs stand apart in the source and are kept apart here.

Legend:
Assay type in all cases: physicochemical
[1] = HT-logP o/w, high throughput assay based on artificial liquid membrane permeability
Excerpt: To be absorbed and transported by passive diffusion, drugs must be sufficiently lipophilic to penetrate the lipid cores of membranes, but not too lipophilic that they get retained and accumulated there. The lipophilictity of a compound is expressed by the octanol/water partition coefficient or distribution coefficient. A first approximation of substance polarity can either be given by computer assisted calculations giving Clog P values or by measurement of the partition coefficients in high-throughput assays (HT-log P o/w) (Faller et al., 2004; Wohnsland et al., 2001).
Octanol/water partition coefficients are measured in a high throughput assay based on artificial liquid membrane permeability. […] Still many approaches to calculate log P values are limited due to a lack of parameterization of certain fragments and fail with increasing molecular weight which implicates higher structural complexity. Similar problems and failures are observed in chromatographic determinations of log P: Peptides might undergo structural changes driven by interactions with the stationary phase. Decisive interactions between the stationary phase and the defolded analytes are therefore also based on the linear peptide sequence. For this reason measured HT-log P o/w values based on chromatographic assays employing stationary phases may lead to erroneous results.

[2] = high throughput solubility (HT-Solubility); conditions: for water solubility (in words): see FIG. 10
[3] = high throughput permeability (HT-Permeability, log Pe); conditions: PAMPA, Pe in cm/s
[4] = octanol/water, read-out: HT LogP ohw
[5] = pH 1, pH 1.0, read-out: HT-Solubility pH 1.0
[6] = pH 6.8, pH 6.8, read-out: HT-Solubility pH 6.8
[7] = pH 8, pH 8.0, read-out: HT-Permeability logPe pH 8.0 (converted)
[8] = pH 4, pH 4.0, read-out: HT-Permeability logPe pH 4.0 (converted)
[9] = pH 6.8, pH 6.8, read-out: HT-Permeability logPe pH 6.8 (converted)
[10] = octanol/water; read-out: HT LogP ohw

SMILES | solubility [2, 5] | solubility [2, 6] | Papp [3, 7] | Papp [3, 8] | water solubility (in words) [2] | also measured
C[C@@H](O)[C@@H](CC(N)=O)NC(=O)C[C@H](CCCCN)NC(=O)[C@@H](Cc1c[nH]c2ccccc12)NC(=O)C[C@H](Cc1ccccc1)NC(=O)C1CCCCC1 [Compound 26, Cyclohexanoyl-(S)-β^3-HPhe-(R)-Trp-(S)-β^3-HLys-(R), (R)—HThr-NH2] | 7.3 µg/mL (≈ 9.97 µM) | 1.5 µg/mL (≈ 2.05 µM) | – | – | – | logP [1, 4]: 3.3
CC(C)[C@@H](CC(=O)N(C)CCc1ccccc1)NC(=O)C[C@H](CCCCN)NC(=O)[C@@H](Cc1c[nH]c2ccccc12)NC(=O)C[C@H](Cc1ccccc1)NC(=O)C12CC3CC(CC(C3)C1)C2 [Compound 27, Adamantoyl-(S)-β^3-HPhe-(R)-Trp-(S)-β^3-HLys-(R)-β^3-Leu-methyl-phenethyl-amide] | 45 µg/mL (≈ 50 µM) | 9 µg/mL (≈ 10 µM) | – | – | – | –
C[C@H]1OC(=O)C[C@H]1NC(=O)C[C@H](CCCCN)NC(=O)[C@@H](Cc1c[nH]c2ccccc12)NC(=O)C[C@@H](N)Cc1ccccc1 [Compound 28, (S)-β^3-HPhe-(R)-Trp-(S)-β^3-HLys-(R)-4-amino-(R)-5-methyl-dihydro-furan-2-one] | 60.5 µg/mL (≈ 100 µM) | 60.5 µg/mL (≈ 100 µM) | 3.16 ×10⁻⁶ cm/s | – | – | logP [1, 4]: 3.5
C[C@H]1OC(=O)C[C@H]1NC(=O)C[C@H](CCCCN)NC(=O)[C@@H](Cc1c[nH]c2ccccc12)NC(=O)C[C@@H](N)Cc1ccccc1 [Compound 29] | – | – | – | – | – | HT LogP ohw ([1]; octanol/water): 3.3; HT-Solubility pH 1.0 [2]: 0.121 g 1-1; HT-Solubility pH 6.8 [2]: 0.121 g 1-1
CC(=O)N[C@H](CC(=O)N[C@H](Cc1c[nH]c2ccccc12)C(=O)N[C@@H](CCCCN)CC(=O)NC1CCCC1)Cc1ccccc1 [Compound 31, Ac—(S)-β^3-HPhe-(R)-Trp-(S)-β^3-HLys-cyclopentyl-amide] | 123 µg/mL (≈ 200 µM) | 123 µg/mL (≈ 200 µM) | 1 ×10⁻⁶ cm/s | 2.51 ×10⁻⁶ cm/s | – | Papp [3, 9]: 2 ×10⁻⁶ cm/s; logP [1, 4]: 2.8
C[C@@H](O)[C@@H](CC(N)=O)NC(=O)C[C@H](CCCCN)NC(=O)[C@@H](Cc1c[nH]c2ccccc12)NC(=O)C[C@@H](N)Cc1ccccc1 [Compound 36, (S)-β^3-HPhe-(R)-Trp-(S)-β^3-HLys-(R), (R)—HThr-NH2] | 124 µg/mL (≈ 200 µM) | 124 µg/mL (≈ 200 µM) | 2 ×10⁻⁶ cm/s | 1.58 ×10⁻⁶ cm/s | – | –
CCCCCNC(=O)C[C@H](CCCCN)NC(=O)[C@@H](Cc1c[nH]c2ccccc12)NC(=O)C[C@H](Cc1ccccc1)NC(C)=O [Compound 45, Ace-(S)-β^3-HPhe-(R)-Trp-(S)-β^3-HLys-pentyl-amide] | – | – | – | – | medium to good | HT LogP ohw ([1]; octanol/water): 3.2; HT-Solubility pH 1.0 [2]: 0.1236 g 1-1; HT-Solubility pH 6.8 [2]: 0.0619 g 1-1
CCCCCNC(=O)C[C@H](CCCCN)NC(=O)[C@@H](Cc1c[nH]c2ccccc12)NC(=O)C[C@H](Cc1ccccc1)NC(=O)CC [Compound 50] | 127 µg/mL (≈ 200 µM) | – | – | – | medium to good | logP [1, 10]: 3.4
CC(=O)N[C@H](CC(=O)N[C@H](Cc1c[nH]c2ccccc12)C(=O)N[C@@H](CCCCN)CC(N)=O)Cc1ccccc1 [Compound 58, Ace-(S)-β^3-HPhe-(R)-Trp-(S)-β^3-HLys-NH2] | 110 µg/mL (≈ 200 µM) | 110 µg/mL (≈ 200 µM) | – | 1 ×10⁻⁶ cm/s | – | Papp [3, 9]: 5.01 ×10⁻⁶ cm/s
CCC(=O)N[C@H](CC(=O)N[C@H](Cc1c[nH]c2ccccc12)C(=O)N[C@@H](CCCCN)CC(N)=O)Cc1ccccc1 [Compound 60, Propionyl-(S)-β^3-HPhe-(R)-Trp-(S)-β^3-HLys-NH2] | 112 µg/mL (≈ 200 µM) | 112 µg/mL (≈ 200 µM) | 1.26 ×10⁻⁶ cm/s | 3.16 ×10⁻⁶ cm/s | – | Papp [3, 9]: 7.94 ×10⁻⁶ cm/s
CCCCCN(C)C(=O)C[C@H](CCCCN)NC(=O)[C@@H](Cc1c[nH]c2ccccc12)N(C)C(=O)C[C@H](Cc1ccccc1)NC(=O)CC [Compound 63, Propionyl-(S)-β^3-HPhe-(R)—N-Me-Trp-(S)-β^3-HLys-methyl-pentyl-amide] | 132 µg/mL (≈ 200 µM) | 132 µg/mL (≈ 200 µM) | – | – | highest solubility values | logP [1, 10]: 3.9
CCCCCCN(C)C(=O)C[C@H](CCCCN)NC(=O)[C@@H](Cc1c[nH]c2ccccc12)N(Cc1ccccc1)C(=O)C[C@H](Cc1ccccc1)NC(=O)CC [Compound 69, Propionyl-(S)-β^3-HPhe-(R)—N-Benzyl-Trp-(S)-β^3-HLys-methyl-hexyl-amide] | – | – | – | – | does not allow for good water solubilities | HT LogP ohw ([1]; octanol/water): 5.1; HT-Solubility pH 1.0 [2]: 0.0751 g 1-1; HT-Solubility pH 6.8 [2]: 0.015 g 1-1
